16 compounds from patent publication US6162810A, “Inadone and tetralone compounds for inhibiting cell proliferation” (The Regents of the University of California, priority 1998, dated 2000) can be followed below.

For experiment [1], the system named is CEM WT, CEM AB9228, MOLT-4, Jurkat, NALL-1, WI-L2, K562, and HL-60 cells. Nature of the experiment: Cytotoxicity to various proliferating cell lines (average). Type of experiment: cell-based, human. As to conditions: Homo sapiens, average TC50 over various proliferating cell lines; read-out: TC50 (the source's name). How it is done: (§1) (B) Similarly, compounds of the invention were tested for their ability to kill CEM WT, CEM AB9228, MOLT-4, Jurkat, NALL-1, WI-L2, K562, and HL-60 cells.

Another experiment has as its system proliferating cells. Nature of the experiment: Ability of further compounds to kill proliferating cells (average). Type of experiment: cell-based. As to conditions: average TC50, proliferating cells; read-out: TC50 (the source's name). How it is done: as §1
(C) Proceeding as described above, further compounds were tested for their ability to kill proliferating cells.

In experiment [2] the test system is human Jurkat T cell leukemia cells. Nature of the experiment: Cytotoxicity to human Jurkat T cell leukemia cells, 3 days culture. The note with it: 72 h, concentration necessary to kill 50% of the cells, three days, OD570/650, read-out: TC50 (the source's name). Type of experiment: cell-based. How it is done: (A) The compounds prepared in Example 1 above were tested for biological activity by culturing human Jurkat T cell leukemia cells for three days at an initial density of 10^5 cells/ml in RPMI 1640+10% FBS (fetal bovine serum). Compounds of the invention were added, and the concentration necessary to kill 50% (TC50) of the cells was determined by OD570/650.

Experiment [3] has as its system tubulin. Nature of the experiment: Inhibition of tubulin assembly. Type of experiment: biochemical, bovine. The note with it: 10 μM tubulin, 20 min incubation, 30° C.; read-out: GI50 inhibitory concentration (tubulin assembly). How it is done: To evaluate the effects of the TB compounds of the invention on tubulin, bovine brain tubulin (2.2 mg/ml) was incubated in PEM80 (80 mM K-PIPES, 1 mM MgCl2, 1 mM EGTA) containing 10% glycerol and 2 mM GTP for 30 minutes at 37° C. in the presence or absence of 20 μg/ml nocodazole, 1 mM paclitaxel, or TB compound no. IK-178 at various concentrations. Tubulin polymer was resolved from monomer by sedimentation through a cushion of 60% glycerol in PEM80 at 70,000 rpm for 30 min at 37° C. in a Beckman TLA100 rotor. A fraction of the supernatant was removed for analysis, the cushion washed and then aspirated, and the pellet resuspended in SDS-PAGE sample buffer. Equal proportions of the supernatant and the pellet were then resolved by SDS-PAGE and tubulin visualized by staining with Coomassie blue.
The quantitative assessment of drug inhibition of tubulin polymerization and evaluation of inhibition of [^3 H]colchicine binding to tubulin were then performed. […] Samples were placed on ice and GTP (0.4 mM) was added. Reaction mixtures were transferred to 0° C. cuvettes in Gilford 250 spectrophotometers, baselines were establishes/d, and the temperature was jumped to 30° C. with electronic temperature controllers (about 60 sec). The IC^50 was defined as the drug concentration required to inhibit extent of assembly after a 20 min incubation. […]

In experiment [4] the test system is tubulin. Nature of the experiment: Inhibition of [3H]vinblastine binding to tubulin. Further details: species or system bovine. The note with it: single experiment. How it is done:
The TB compounds of the invention (as represented by TB compound IK-178), are nearly as potent as the strong tubulin assembly inhibitor, combretastatin A-4 (CS-A4). In particular, the GI^50 inhibitory concentration of CS-A4 was 1.2±0.03 μM (n=4), while that of TB compound IK-178 was 1.7±0.1 μM (n=3).

The test system of experiment [5] is HL-60/ADR and MDF-7/ADR cells. Nature of the experiment: MTT assay, visual comparison of cells with and without MDR (FIGS. 1 and 2). Type of experiment: cell-based, human. The note with it: 3 days. In general terms: Tetrazolium assays rely on reduction of a dye to a coloured formazan, in cell work by metabolically active cells.
A further experiment relates to MV522/Q6. Nature of the experiment: Growth inhibition of MV522/Q6 (MDR). Type of experiment: cell-based. As to conditions: Homo sapiens, ±1 SD, n>5.
Another experiment relates to MCF-7/ADR. Nature of the experiment: Growth inhibition of MCF-7/ADR (MDR). It counts as cell-based. As to conditions: Homo sapiens, NCI/ADR-RES, ±1 SD, n>5.
Another experiment deals with CEM. Nature of the experiment: Growth inhibition of CEM (wild type). It counts as cell-based. As to conditions: Homo sapiens, CCRF-CEM, ±1 SD, n>5.
The next experiment relates to MES-SA/DX5. Nature of the experiment: Growth inhibition of MES-SA/DX5 (MDR). It counts as cell-based. The note with it: Homo sapiens, ±1 SD, n>5.
Another experiment has as its system MDA3-1/gp170. Nature of the experiment: Growth inhibition of MDA3-1/gp170 (MDR). As to conditions: Homo sapiens, MDR1, ±1 SD, n>5. It counts as cell-based.
The test system of the next experiment is MES-SA. Nature of the experiment: Growth inhibition of MES-SA (wild type). It counts as cell-based. As to conditions: Homo sapiens, ±1 SD, n>5.
The test system of the next experiment is HL-60. Nature of the experiment: Growth inhibition of HL-60 (wild type). As to conditions: Homo sapiens, ±1 SD, n>5. Type of experiment: cell-based.
The subject of the next experiment is CEM/VLB100. Nature of the experiment: Growth inhibition of CEM/VLB100 (MDR). Type of experiment: cell-based. As to conditions: Homo sapiens, ±1 SD, n>5.
In another experiment the test system is KB-GRC-1 and MV522/Q6. Nature of the experiment: MTT proliferation assay of mdr1 overexpressing transfectomas. It counts as cell-based, human. The note with it: 72 h.
In the next experiment the test system is MV522. Nature of the experiment: Growth inhibition of MV522 (wild type). It counts as cell-based. As to conditions: Homo sapiens, ±1 SD, n>5.
Another experiment deals with MDA-MB-321. Nature of the experiment: Growth inhibition of MDA-MB-321 (wild type). Type of experiment: cell-based. As to conditions: Homo sapiens, ±1 SD, n>5.
The subject of the next experiment is HL-60/ADR. Nature of the experiment: Growth inhibition of HL-60/ADR (MDR). As to conditions: Homo sapiens, HL60/ADR, ±1 SD, n>5. It counts as cell-based.
Another experiment relates to MCF-7. Nature of the experiment: Growth inhibition of MCF-7 (wild type). Type of experiment: cell-based. The note with it: Homo sapiens, MCF7, ±1 SD, n>5.
A further experiment deals with KB-3-1. Nature of the experiment: Growth inhibition of KB-3-1 (wild type). Type of experiment: cell-based. As to conditions: Homo sapiens, ±1 SD, n>5.
In a further experiment the test system is KB-GRC-1. Nature of the experiment: Growth inhibition of KB-GRC-1 (MDR). Type of experiment: cell-based. The note with it: Homo sapiens, MDR1, ±1 SD, n>5.
The subject of a further experiment is HL-60/ADR cells. Nature of the experiment: Apoptosis of HL-60/ADR cells (FACS). It counts as cell-based, human. How it is done: FACS analysis was performed to determine the influence of the TB compounds of the invention on growth cycling of cells (the analysis was performed on harvested cells, fixed in ice-cold 70% ethanol solution, then treated with 100 μg/ml of RNAse A and stained with 50 μg/ml propidium iodide for 1 h at 37° C. DNA content of the cells was analyzed by flow cytometry (Becton Dickinson FACScalibur), and the cell cycle distribution was calculated with the program ModFit LT 2.0 (Verity Software)).
First, the stage at which the TB compounds of the invention arrest growth of HL-60 and HL-60/ADR cells was determined by FACS analysis and caspase-3 activation as described above.

In the next experiment the test system is caspase-3 in HL-60 cells. Nature of the experiment: Caspase-3 activation in HL-60 cells. As to conditions: HL-60 cells. Type of experiment: cell-based, human.

Some results are limits rather than exact numbers.

In the case of `COc1cc2c(cc1OC)C(=O)/C(=C/c1cc(Cl)cc(Cl)c1)C2` [5,6-dimethoxy-2-(3',5'-dichlorophenylmethylene)-1-indanone], the CC50 in experiment [1] amounted to 750 nM; in the experiment on proliferating cells, 2000 nM; in [2], 750 nM.
Consider `COc1cc(C=C2Cc3cc(OC)c(OC)cc3C2=NO)cc(OC)c1` [5,6-dimethoxy-2-(3',5'-dimethoxyphenylmethylene)-1-hydroximinioindane], for which the CC50 in [1] and in [2] was 800 nM in each case.
Take `COc1cc(C=C2Cc3cc(OC)c(OC)cc3C2O)cc(OC)c1` (stereo not drawn) [5,6-dimethoxy-2-(3',5'-dimethoxyphenylmethylene)-1-hydroxyindane]: the CC50 in [2] worked out at 750 nM.
Turning to `COc1cc(C=C2Cc3cc(OC)c(OC)cc3C2=O)cc(OC)c1` [5,6-dimethoxy-2-(3',5'-dimethoxyphenylmethylene)-1-indanone], the CC50 was found to be 750 nM in [1], 2000 nM in the experiment on proliferating cells and 750 nM in experiment [2].
Consider `COc1cc2c(cc1OC)C(=O)C(=Cc1cc(C)cc(C)c1)C2` [5,6-dimethoxy-2-(3',5'-dimethylphenylmethylene)-1-indanone], for which the CC50 is 75 nM in experiment [1], 81 nM in the experiment with proliferating cells and 75 nM in [2].
For `COc1cc2c(c(N)c1OC)C(=O)C(=Cc1cc(C)c(O)c(C)c1)C2` [5,6-dimethoxy-7-amino-2-(3',5'-dimethyl-4'-hydroxyphenylmethylene)-1-indanone], the values for the CC50 (in [1]; in the experiment on proliferating cells) were 5 nM and 0.8 nM, respectively.
For `COc1cc2c(c([N+](=O)[O-])c1OC)C(=O)/C(=C/c1cc(C)c(O)c(C)c1)C2` [5,6-dimethoxy-7-nitro-2-(3',5'-dimethyl-4'-hydroxyphenylmethylene)-1-indanone], the CC50 (in [1]; in the experiment on proliferating cells) was above 50000 nM in each case.
As for `COc1cc2c(c(NC(=O)C(=O)O)c1OC)C(=O)C(=Cc1cc(C)c(O)c(C)c1)C2` [5,6-dimethoxy-7-oxalylamino-2-(3',5'-dimethyl-4'-hydroxyphenylmethylene)-1-indanone], the figures for the CC50 (in experiment [1]; in the experiment on proliferating cells) were 4 nM and 150 nM, respectively.
As for `COc1cc2c(cc1OC)C(=O)C(=Cc1cccc(OC)c1OC)CC2` [6,7-dimethoxy-2-(2',3'-dimethoxyphenylmethylene)-1-tetralone], the CC50 (in experiment [1]; in the experiment on proliferating cells) was above 50000 nM each time.
`COc1ccc(C=C2CCc3cc(OC)c(OC)cc3C2=O)cc1OC` [6,7-dimethoxy-2-(3',4'-dimethoxyphenylmethylene)-1-tetralone]: the CC50 (in [1]; with proliferating cells) was above 50000 nM in each case.
As to `COc1cc(/C=C2\CCc3cc(OC)c(OC)cc3C2=O)cc(OC)c1` [6,7-dimethoxy-2-(3',5'-dimethoxyphenylmethylene)-1-tetralone], the CC50 came to 4000 nM in [1] and 5000 nM in experiment [2].
In the case of `COc1cc2c(cc1OC)C(=O)C(=Cc1ccc(O)cc1)CC2` [6,7-dimethoxy-2-(4'-hydroxyphenylmethylene)-1-tetralone], the CC50 (in experiment [1]; in the experiment with proliferating cells) was 30000 nM each time.
As to `COc1ccc(C=C2CCc3cc(OC)c(OC)cc3C2=O)cc1` [6,7-dimethoxy-2-(4'-methoxyphenylmethylene)-1-tetralone], the CC50 (in [1]; in the experiment with proliferating cells) was above 50000 nM throughout.
Take `COc1ccc(/C=C\c2cc(OC)c(OC)c(OC)c2)cc1O` [CS-A4, combretastatin A-4, reference compound]: the GI50 in the experiment with tubulin [3] worked out at 1200 ± 30 nM. Also, the “inhibition of [3H]vinblastine binding to tubulin” value in the experiment on tubulin [4] is on record as “Neither agent inhibited”.
Regarding `CC(=O)O[C@H]1C(=O)[C@@]2(C)[C@H]([C@H](OC(=O)c3ccccc3)[C@]3(O)C[C@H](OC(=O)[C@H](O)[C@@H](NC(=O)c4ccccc4)c4ccccc4)C(C)=C1C3(C)C)[C@]1(OC(C)=O)CO[C@@H]1C[C@@H]2O` [Paclitaxel, paclitaxel, reference compound], the “sensitivity with acquisition of MDR” value in experiment [5] is recorded as “sensitivity to paclitaxel was lost”. For the same compound, the GI50 in the experiment with MV522/Q6 was 358 ± 8 nM; in the experiment on MCF-7/ADR it was above 10 µM; with CEM it was below 1 nM; with MES-SA/DX5, above 1000 nM; in the experiment on MDA3-1/gp170, above 1000 nM; with MES-SA, below 1 nM. Besides, the GI50 is below 1 nM in the experiment on HL-60; 606 ± 20 nM with CEM/VLB100; 15 ± 4 nM in the experiment with MV522; 50 ± 2 nM in the experiment on MDA-MB-321; above 1000 nM with HL-60/ADR; 50 ± 6 nM in the experiment with MCF-7. Besides, the results for the GI50 with KB-3-1 and in the experiment with KB-GRC-1 were 7 ± 3 nM and above 1000 nM, respectively. The “sensitivity of transfectomas overexpressing mdr1” value with KB-GRC-1 and MV522/Q6 is reported as “resistant”.
For `COc1cc2c(c(OC)c1OC)-c1ccc(OC)c(=O)cc1[C@@H](NC(C)=O)CC2` [colchicine, reference compound], the apoptosis entry with HL-60/ADR cells is on record as “did not induce the apoptosis”. Besides, in the experiment with caspase-3 in HL-60 cells, the caspase-3 activity entry was “did not activate caspase-3”.
